# Assay results taken from ChEMBL document CHEMBL1132116, “Abasic site recognition in DNA as a new strategy to potentiate the action of anticancer alkylating drugs?” (1999).
# What was measured:
# [1] = organism: Mus musculus; assay: Rate of survival of treated Mice to survival of controls * 100; format: functional
# [2] = system: Mus musculus; assay: Number of surviving Mice after 60 days of administration of the compound; Survivals= 0/6; format: functional
# [3] = system: P388; assay: Inhibitory activity against P388 murine leukemia at 2 mg/kg concentration; format: functional, Mus musculus
# [4] = system: Mus musculus; assay: Number of surviving Mice in the presence (N,N''-bis(2-chloroethyl)-N-nitrosourea) of BCNU after 60 days of administration of the compound; Survivals= 6/6; format: functional
structure (smiles),measurement,setting,value
COc1ccc2nc3cc(Cl)ccc3c(NCCCN(CCCN(CCn3cnc4c(N)ncnc43)C(=N)N)C(=N)N)c2c1,T/C,[1],109
same,Survival,[2],0
same,Survival,[3],16.2 days
same,Survival,[4],6
